Reference: patent publication US8501757B2, “Substituted phenylamine carboxamide analogs as mGluR5 negative allosteric modulators and methods of making and using the same” (priority 2009, dated 2013)
Read-outs that look alike come from different tables or passages of the source.

How the values were obtained:
[1] = target: T1, rat mGluR5 (Rattus norvegicus, UniProt P31424); assay: cell-based
Method: (§1) Human embryonic kidney (HEK) cells transfected with rat mGluR5 were plated in clear bottom assay plates for assay in a Functional Drug Screening System (FDSS). The cells were loaded with a Ca2+-sensitive fluorescent dye (e.g., Fluo-4), and the plates were washed and placed in the FDSS instrument. Test compound was applied to cells 3 seconds after baseline readings were taken. Cells were incubated with the test compounds for 140 seconds and then stimulated with an EC20 concentration of an mGluR5 agonist (e.g., glutamate, 3,5-dihydroxyphenylglycine, or quisqualate); 60 seconds later an EC80 concentration of agonist was added and readings taken for an additional 40 seconds. Data were collected at 1 Hz. […] Concentration response curves were generated using a four parameter logistical equation.
(§2) The above described assay was operated in two modes. In the first mode (utilizing a triple add protocol), a range of concentrations of the present compounds were added to cells, followed by two single fixed concentrations of agonist (EC20 followed by EC80). If a compound acted as a potentiator, an EC50 value for potentiation and a maximum extent of potentiation by the compound at this concentration of agonist was determined by non-linear curve fitting. If a compound acted as an antagonist, an IC50 value for antagonism and a maximum extent of antagonism by the compound at this concentration of agonist was determined by non-linear curve fitting. In the second mode (utilizing a double add protocol), several fixed concentrations of the present compounds were added to various wells on a plate, followed by a range of concentrations of agonist for each concentration of present compound; the EC50 values for the agonist at each concentration of compound were determined by non-linear curve fitting. A decrease in the EC50 value of the agonist with increasing concentrations of the present compounds (a leftward shift of the agonist concentration-response curve) is an indication of the degree of mGluR5 positive allosteric modulation at a given concentration of the present compound. An increase in the EC50 value of the agonist with increasing concentrations of the present compounds (a rightward shift of the agonist concentration-response curve) is an indication of the degree of mGluR5 antagonism at a given concentration of the present compound. The second mode also indicates whether the present compounds also affect the maximum response to mGluR5 to agonists.
(§3) The mGluR5 activity was determined using the metabotropic glutamate receptor activity assays in human embryonic kidney cells as described herein, wherein the human embryonic kidney cells were transfected with rat mGluR5. The mGluR5 activity data for some compounds are shown as the average of at least three experiments with the standard error in these cases. If no error is indicated for the mGluR5 activity, the values given represent the results from a single experiment or the average of two experiments.
(§4) The cells were loaded with a Ca2+-sensitive fluorescent dye (e.g., Fluo-4), and the plates were washed and placed in the FDSS instrument. Test compound was applied to cells 3 seconds after baseline readings were taken. Cells were incubated with the test compounds for 140 seconds and then stimulated with an EC20 concentration of an mGluR5 agonist (e.g., glutamate, 3,5-dihydroxyphenylglycine, or quisqualate); 60-80 seconds later an EC80 concentration of agonist was added and readings taken for an additional 40 seconds. Data were collected at 1 Hz.

[2] = target: human mGluR5 (Homo sapiens, UniProt P41594); assay: cell-based
Method: The mGluR5 activity was determined using the metabotropic glutamate receptor activity assays in human embryonic kidney cells as described herein. The mGluR5 activity data for some compounds are shown as the average of at least three experiments with the standard error in these cases. If no error is indicated for the mGluR5 activity, the values given represent the results from a single experiment or the average of two experiments.
The cells were loaded with a Ca2+-sensitive fluorescent dye (e.g., Fluo-4), and the plates were washed and placed in the FDSS instrument. Test compound was applied to cells 3 seconds after baseline readings were taken. Cells were incubated with the test compounds for 140 seconds and then stimulated with an EC20 concentration of an mGluR5 agonist (e.g., glutamate, 3,5-dihydroxyphenylglycine, or quisqualate); 60-80 seconds later an EC80 concentration of agonist was added and readings taken for an additional 40 seconds. Data were collected at 1 Hz. […] Concentration response curves were generated using a four parameter logistical equation.
The above described assay was operated in two modes. In the first mode (utilizing a triple add protocol), a range of concentrations of the present compounds were added to cells, followed by two single fixed concentrations of agonist (EC20 followed by EC80). If a compound acted as a potentiator, an EC50 value for potentiation of the EC20 response and a maximum extent of potentiation by the compound at this concentration of agonist was determined by non-linear curve fitting. If a compound acted as an antagonist, an IC50 value for antagonism of the EC80 response and a maximum extent of antagonism by the compound at this concentration of agonist was determined by non-linear curve fitting. In the second mode (utilizing a double add protocol), several fixed concentrations of the present compounds were added to various wells on a plate, followed by a range of concentrations of agonist for each concentration of present compound; the EC50 values for the agonist at each concentration of compound were determined by nonlinear curve fitting. A decrease in the EC50 value of the agonist with increasing concentrations of the present compounds (a leftward shift of the agonist concentration-response curve) is an indication of the degree of mGluR5 positive allosteric modulation at a given concentration of the present compound. An increase in the EC50 value of the agonist with increasing concentrations of the present compounds (a rightward shift of the agonist concentration response curve) is an indication of the degree of mGluR5 antagonism at a given concentration of the present compound. The second mode also indicates whether the present compounds also affect the maximum response to mGluR5 to agonists.

[3] = target: T1, rat mGluR5; details: read-out: mGluR5, IC50 rat; HEK cells expressing rat mGluR5
Method: as §1, §2, §3, §4

T1 sequence (P31424 21-1203): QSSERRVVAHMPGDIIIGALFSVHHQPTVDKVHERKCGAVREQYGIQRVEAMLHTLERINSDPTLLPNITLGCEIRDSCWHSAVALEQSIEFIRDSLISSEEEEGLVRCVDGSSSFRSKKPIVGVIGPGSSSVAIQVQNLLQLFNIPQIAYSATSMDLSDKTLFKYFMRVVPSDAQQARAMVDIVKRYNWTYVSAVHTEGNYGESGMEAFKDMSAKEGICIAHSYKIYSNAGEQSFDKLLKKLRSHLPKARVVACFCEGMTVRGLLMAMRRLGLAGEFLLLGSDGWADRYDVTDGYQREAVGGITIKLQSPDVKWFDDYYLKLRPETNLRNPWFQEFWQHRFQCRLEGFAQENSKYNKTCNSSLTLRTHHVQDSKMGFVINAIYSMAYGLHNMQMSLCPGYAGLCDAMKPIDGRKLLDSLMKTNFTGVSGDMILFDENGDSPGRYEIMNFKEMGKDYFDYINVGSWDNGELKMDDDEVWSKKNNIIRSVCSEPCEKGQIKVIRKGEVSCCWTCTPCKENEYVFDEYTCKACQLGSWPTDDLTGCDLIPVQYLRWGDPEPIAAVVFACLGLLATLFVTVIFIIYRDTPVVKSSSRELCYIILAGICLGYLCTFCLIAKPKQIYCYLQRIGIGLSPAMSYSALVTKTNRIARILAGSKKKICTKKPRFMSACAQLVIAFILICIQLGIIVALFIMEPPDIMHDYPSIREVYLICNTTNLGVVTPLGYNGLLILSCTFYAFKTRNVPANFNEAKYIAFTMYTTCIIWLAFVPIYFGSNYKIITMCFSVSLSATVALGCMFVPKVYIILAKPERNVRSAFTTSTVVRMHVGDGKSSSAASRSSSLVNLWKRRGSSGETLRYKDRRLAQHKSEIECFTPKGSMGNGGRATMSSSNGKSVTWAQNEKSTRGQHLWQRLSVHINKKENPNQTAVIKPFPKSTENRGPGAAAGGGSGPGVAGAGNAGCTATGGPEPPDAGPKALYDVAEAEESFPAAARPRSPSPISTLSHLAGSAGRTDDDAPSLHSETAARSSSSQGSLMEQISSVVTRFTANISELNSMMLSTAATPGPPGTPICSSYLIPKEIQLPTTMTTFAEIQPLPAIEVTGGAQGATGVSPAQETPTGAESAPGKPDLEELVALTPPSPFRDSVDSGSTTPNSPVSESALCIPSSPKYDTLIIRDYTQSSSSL
human mGluR5, sequence (P41594 21-1212): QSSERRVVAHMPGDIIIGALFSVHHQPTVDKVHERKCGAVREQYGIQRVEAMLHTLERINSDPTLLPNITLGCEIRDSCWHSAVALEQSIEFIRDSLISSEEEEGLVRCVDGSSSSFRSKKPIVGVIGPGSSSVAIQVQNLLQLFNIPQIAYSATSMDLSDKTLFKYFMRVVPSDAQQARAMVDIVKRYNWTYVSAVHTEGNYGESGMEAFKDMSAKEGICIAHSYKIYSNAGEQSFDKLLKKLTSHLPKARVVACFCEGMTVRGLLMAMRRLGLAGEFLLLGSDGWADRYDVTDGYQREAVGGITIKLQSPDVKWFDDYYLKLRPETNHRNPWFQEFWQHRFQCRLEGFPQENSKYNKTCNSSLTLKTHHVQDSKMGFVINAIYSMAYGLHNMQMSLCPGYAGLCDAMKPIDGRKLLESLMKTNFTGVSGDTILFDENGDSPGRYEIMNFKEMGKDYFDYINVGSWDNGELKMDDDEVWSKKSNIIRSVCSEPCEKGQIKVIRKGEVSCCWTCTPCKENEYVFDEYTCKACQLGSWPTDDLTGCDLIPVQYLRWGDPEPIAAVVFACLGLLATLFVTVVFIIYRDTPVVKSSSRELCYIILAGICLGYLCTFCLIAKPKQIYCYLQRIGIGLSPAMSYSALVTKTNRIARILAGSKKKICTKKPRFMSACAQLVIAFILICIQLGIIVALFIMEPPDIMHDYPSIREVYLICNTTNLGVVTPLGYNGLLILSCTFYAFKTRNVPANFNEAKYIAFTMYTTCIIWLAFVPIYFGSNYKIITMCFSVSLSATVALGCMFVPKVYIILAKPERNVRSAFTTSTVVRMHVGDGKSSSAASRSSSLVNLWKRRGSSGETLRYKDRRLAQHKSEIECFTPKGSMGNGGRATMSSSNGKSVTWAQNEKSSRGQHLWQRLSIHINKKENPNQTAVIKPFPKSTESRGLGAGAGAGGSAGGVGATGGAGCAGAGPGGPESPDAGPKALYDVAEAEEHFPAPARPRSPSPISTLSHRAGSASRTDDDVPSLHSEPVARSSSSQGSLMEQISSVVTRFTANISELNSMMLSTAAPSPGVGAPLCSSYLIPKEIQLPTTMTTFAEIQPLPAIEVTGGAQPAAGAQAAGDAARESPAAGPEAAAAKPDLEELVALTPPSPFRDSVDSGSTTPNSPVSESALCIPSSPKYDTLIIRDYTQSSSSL

**Q.** How did the IC50 [1] turn out when Cc1ncccc1Oc1cccc(NC(=O)c2cccc(Cl)c2)c1 was run?
**A.** The IC50 was 2230 nM.

**Q.** How did the IC50 [1] turn out when Cc1cccc(C(=O)Nc2cccc(Oc3cccnc3)c2)c1 was run?
**A.** The IC50 was 286 nM.

**Q.** With O=C(Nc1cccc(Oc2cccnc2)c1)c1cccc(C(F)(F)F)c1 as the compound, how does the IC50 [1] read?
**A.** Its IC50 is 5990 nM.

**Q.** N#Cc1cccc(C(=O)Nc2cccc(Oc3cccnc3)c2)c1 was tested. Which IC50 [1] did it give?
**A.** The IC50 was 536 nM.

**Q.** Which IC50 [1] does the source give for O=C(Nc1cccc(Oc2cccnc2)c1)c1ccc(F)c(Cl)c1 here?
**A.** The IC50 was 6250 nM.

**Q.** How did the IC50 [1] turn out when O=C(Nc1cccc(Oc2cccnc2)c1)c1cccc(F)n1 was run?
**A.** Its IC50 is 3530 nM.

**Q.** Which IC50 [1] does the source give for COc1cccc(C(=O)Nc2cccc(Oc3cccnc3)c2)n1 here?
**A.** The IC50 was 8340 nM.

**Q.** O=C(Nc1cccc(Oc2cccnc2)c1)c1cscn1 was tested. Which IC50 [1] did it give?
**A.** Its IC50 is 1270 nM.

**Q.** Which IC50 [1] does the source give for O=C(Nc1cccc(Oc2cccnc2)c1)c1nccs1 here?
**A.** The IC50 was 1600 nM.

**Q.** How did the IC50 [1] turn out when Cc1nc(C(=O)Nc2cccc(Oc3cccnc3)c2)cs1 was run?
**A.** The IC50 was 4210 nM.

**Q.** How did the IC50 [1] turn out when Cc1csc(C(=O)Nc2cccc(Oc3cccnc3)c2)n1 was run?
**A.** The IC50 was 465 nM.

**Q.** How did the IC50 [1] turn out when O=C(Nc1cc(Oc2cccnc2)cc(C(F)(F)F)c1)c1cccc(Cl)c1 was run?
**A.** The IC50 was greater than 30000 nM.

**Q.** N#Cc1cccc(C(=O)Nc2cc(Cl)cc(Oc3cncnc3)c2)c1 was tested. Which IC50 [1] did it give?
**A.** Its IC50 is 63 ± 9 nM.

**Q.** For Cc1ccc(Oc2cc(Cl)cc(NC(=O)c3cccc(Cl)c3)c2)cn1, which IC50 [1] is on record?
**A.** The IC50 was greater than 10000 nM.

**Q.** Cc1cccc(C(=O)Nc2cc(Cl)cc(Oc3ccc(C)nc3)c2)c1 was tested. Which IC50 [1] did it give?
**A.** Its IC50 is 6870 nM.

**Q.** O=C(Nc1cccc(Oc2cncnc2)c1)c1cccc(Cl)c1 was tested. Which IC50 [1] did it give?
**A.** Its IC50 is 75 ± 13 nM.

**Q.** How did the IC50 [1] turn out when CN(c1cccnc1)c1cccc(NC(=O)c2cccc(Cl)c2)c1 was run?
**A.** Its IC50 is 31 ± 5 nM.

**Q.** CCN(c1cccnc1)c1cccc(NC(=O)c2cccc(Cl)c2)c1 was tested. Which IC50 [1] did it give?
**A.** Its IC50 is 111 ± 21 nM.

**Q.** How did the IC50 [1] turn out when CCCN(c1cccnc1)c1cccc(NC(=O)c2cccc(Cl)c2)c1 was run?
**A.** The IC50 was 5490 nM.

**Q.** CN(c1cccnc1)c1cccc(NC(=O)c2cccc(Br)c2)c1 was tested. Which IC50 [1] did it give?
**A.** The IC50 was 83 nM.

**Q.** How did the IC50 [1] turn out when O=C(Nc1cccc(Oc2cccnc2)c1)c1cccc(Cl)c1F was run?
**A.** The IC50 was greater than 10000 nM.

**Q.** How did the IC50 [1] turn out when N#Cc1cccc(C(=O)Nc2cccc(Oc3cncc(Cl)c3)c2)c1 was run?
**A.** The IC50 was 155 nM.

**Q.** Which IC50 [1] does the source give for O=C(Nc1cccc(Oc2cncc(F)c2)c1)c1cccc(Br)c1 here?
**A.** The IC50 was 124 nM.

**Q.** Which IC50 [1] does the source give for O=C(Nc1cc(Cl)cc(Oc2cncc(F)c2)c1)c1cccc(Cl)n1 here?
**A.** Its IC50 is 5370 nM.

**Q.** How did the IC50 [1] turn out when N#Cc1cccc(C(=O)Nc2cccc(Oc3cncnc3)c2)c1 was run?
**A.** The IC50 was 580 nM.

**Q.** For N#Cc1cc(NC(=O)c2cccc(C#N)c2)cc(Oc2cncnc2)c1, which IC50 [1] is on record?
**A.** Its IC50 is 443 nM.

**Q.** For O=C(Nc1cccc(Oc2cncnc2)c1)c1cccc(Br)c1, which IC50 [1] is on record?
**A.** The IC50 was 53 nM.

**Q.** With O=C(Nc1cc(F)cc(Oc2cncnc2)c1)c1cccc(F)n1 as the compound, how does the IC50 [1] read?
**A.** The IC50 was 2560 nM.

**Q.** For COc1cccc(C(=O)Nc2cc(F)cc(Oc3cncnc3)c2)c1, which IC50 [1] is on record?
**A.** The IC50 was 311 nM.

**Q.** With O=C(Nc1cc(F)cc(Oc2cncnc2)c1)c1cccc(F)c1 as the compound, how does the IC50 [1] read?
**A.** The IC50 was 288 nM.

**Q.** With N#Cc1ccc(F)c(C(=O)Nc2cc(F)cc(Oc3cncnc3)c2)c1 as the compound, how does the IC50 [1] read?
**A.** Its IC50 is 87 nM.

**Q.** For O=C(Nc1cc(F)c(F)c(Oc2cncnc2)c1)c1cc(F)ccn1, which IC50 [1] is on record?
**A.** The IC50 was 1690 nM.

**Q.** How did the IC50 [1] turn out when N#Cc1cc(C(=O)Nc2cc(F)cc(Oc3cncnc3)c2)ccc1F was run?
**A.** Its IC50 is 1640 nM.

**Q.** How did the IC50 [1] turn out when O=C(Nc1cc(F)cc(Oc2cncnc2)c1)c1cccc(OC(F)(F)F)c1 was run?
**A.** Its IC50 is 417 nM.

**Q.** How did the IC50 [1] turn out when O=C(Nc1cc(F)c(F)c(Oc2cncnc2)c1)c1ccc(F)cn1 was run?
**A.** Its IC50 is 5420 nM.

**Q.** CC(C)Oc1ccnc(C(=O)Nc2cc(F)cc(Oc3cncnc3)c2)c1 was tested. Which IC50 [1] did it give?
**A.** Its IC50 is 230 nM.

**Q.** How did the IC50 [1] turn out when COc1ccnc(C(=O)Nc2cc(C#N)cc(Oc3cncnc3)c2)c1 was run?
**A.** The IC50 was 63 nM.

**Q.** Which IC50 [1] does the source give for CCN(c1cccnc1)c1cc(F)cc(NC(=O)c2cccc(Cl)c2)c1 here?
**A.** The IC50 was 388 nM.

**Q.** For CCN(c1cccnc1)c1cc(F)cc(NC(=O)c2cccc(Br)c2)c1, which IC50 [1] is on record?
**A.** Its IC50 is 656 nM.

**Q.** CCN(c1cccnc1)c1cccc(NC(=O)c2cccc(Br)c2)c1 was tested. Which IC50 [1] did it give?
**A.** Its IC50 is 208 nM.

**Q.** With CCN(c1cccnc1)c1cccc(NC(=O)c2cccc(C#N)c2)c1 as the compound, how does the IC50 [1] read?
**A.** The IC50 was 120 nM.

**Q.** With CN(c1cncc(Cl)c1)c1cccc(NC(=O)c2cccc(Cl)c2)c1 as the compound, how does the IC50 [1] read?
**A.** The IC50 was greater than 10000 nM.

**Q.** With CN(c1cncc(Cl)c1)c1cccc(NC(=O)c2cccc(C#N)c2)c1 as the compound, how does the IC50 [1] read?
**A.** Its IC50 is greater than 10000 nM.

**Q.** For CCN(c1cncnc1)c1cccc(NC(=O)c2cccc(C#N)c2)c1, which IC50 [1] is on record?
**A.** Its IC50 is 43 nM.

**Q.** Which IC50 [1] does the source give for CN(c1cncnc1)c1cccc(NC(=O)c2cccc(C#N)c2)c1 here?
**A.** The IC50 was 84 ± 14 nM.

**Q.** With CN(c1cncnc1)c1cccc(NC(=O)c2cccc(F)c2)c1 as the compound, how does the IC50 [1] read?
**A.** The IC50 was 21 ± 4 nM.

**Q.** For COc1cccc(C(=O)Nc2cccc(N(C)c3cncnc3)c2)c1, which IC50 [1] is on record?
**A.** Its IC50 is 108 ± 32 nM.

**Q.** Which IC50 [1] does the source give for CN(c1cncnc1)c1cccc(NC(=O)c2cccc(C(F)(F)F)n2)c1 here?
**A.** Its IC50 is 34 ± 7 nM.

**Q.** For CN(c1cncnc1)c1cc(Cl)cc(NC(=O)c2cccc(Cl)c2)c1, which IC50 [1] is on record?
**A.** The IC50 was 138 nM.

**Q.** Which IC50 [1] does the source give for CN(c1cncnc1)c1cc(NC(=O)c2cccc(Br)c2)ccc1Cl here?
**A.** The IC50 was 36 nM.

**Q.** How did the IC50 [1] turn out when CN(c1cncnc1)c1cc(NC(=O)c2cccc(C#N)c2)ccc1Cl was run?
**A.** Its IC50 is 59 nM.

**Q.** Which IC50 [1] does the source give for CN(c1cncnc1)c1cc(NC(=O)c2cccc(Br)c2)ccc1F here?
**A.** The IC50 was 14 nM.

**Q.** With CN(c1cncnc1)c1cc(NC(=O)c2cccc(C#N)c2)ccc1F as the compound, how does the IC50 [1] read?
**A.** Its IC50 is 51 nM.

**Q.** With CN(c1cncnc1)c1ccc(F)c(NC(=O)c2cccc(Cl)c2)c1 as the compound, how does the IC50 [1] read?
**A.** Its IC50 is 80 nM.

**Q.** With CN(c1cncnc1)c1cc(F)cc(NC(=O)c2cccc(F)c2)c1 as the compound, how does the IC50 [1] read?
**A.** Its IC50 is 127 nM.

**Q.** With CN(c1cncnc1)c1cc(NC(=O)c2cccc(F)c2)ccc1Cl as the compound, how does the IC50 [1] read?
**A.** The IC50 was 16 nM.

**Q.** CN(c1cncnc1)c1cc(NC(=O)c2cccc(F)n2)ccc1F was tested. Which IC50 [1] did it give?
**A.** Its IC50 is 8.6 nM.

**Q.** CN(c1cncnc1)c1cc(NC(=O)c2cccc(F)c2)ccc1F was tested. Which IC50 [1] did it give?
**A.** Its IC50 is 9.8 nM.

**Q.** For CN(c1cncnc1)c1cc(NC(=O)c2cccc(C#N)c2)cc(F)c1F, which IC50 [1] is on record?
**A.** Its IC50 is 148 nM.

**Q.** How did the IC50 [1] turn out when CC(C)CN(c1cncnc1)c1cc(NC(=O)c2cccc(Cl)c2)ccc1Cl was run?
**A.** The IC50 was greater than 10000 nM.

**Q.** Which IC50 [1] does the source give for [2H]C([2H])([2H])N(c1cncnc1)c1cc(NC(=O)c2cccc(C#N)c2)ccc1Cl here?
**A.** Its IC50 is 84 nM.

**Q.** Which IC50 [1] does the source give for CN(c1cncnc1)c1cc(NC(=O)c2cccc(F)c2)cc(F)c1F here?
**A.** Its IC50 is 28 nM.

**Q.** How did the IC50 [1] turn out when CN(c1cncnc1)c1cc(NC(=O)c2cscn2)cc(F)c1F was run?
**A.** The IC50 was 80 nM.

**Q.** How did the IC50 [1] turn out when CN(c1cncnc1)c1cc(NC(=O)c2cccc(O)n2)ccc1F was run?
**A.** The IC50 was 2910 nM.

**Q.** With N#Cc1cc(NC(=O)c2cc(Cl)ccn2)cc(Oc2cncnc2)c1 as the compound, how does the IC50 [1] read?
**A.** Its IC50 is 16 nM.

**Q.** With N#Cc1cc(NC(=O)c2cc(Br)ccn2)cc(Oc2cncnc2)c1 as the compound, how does the IC50 [1] read?
**A.** Its IC50 is 17 nM.

**Q.** With O=C(Nc1cc(Cl)cc(Oc2cncnc2)c1)c1cccc(Cl)c1 as the compound, how does the IC50 [2] read?
**A.** Its IC50 is 30 nM.

**Q.** With N#Cc1cccc(C(=O)Nc2cccc(Oc3cncc(F)c3)c2)c1 as the compound, how does the IC50 [2] read?
**A.** Its IC50 is 249 nM.

**Q.** N#Cc1cc(NC(=O)c2cccc(Br)c2)cc(Oc2cncnc2)c1 was tested. Which IC50 [2] did it give?
**A.** Its IC50 is 94 nM.

**Q.** How did the IC50 [2] turn out when CN(c1cncnc1)c1cc(NC(=O)c2cccc(Cl)c2)ccc1F was run?
**A.** The IC50 was 11 nM.

**Q.** Which IC50 [1] does the source give for N#Cc1cccc(C(=O)Nc2cc(F)cc(Oc3cncnc3)c2)c1 [drawing 550] here?
**A.** Its IC50 is 61 ± 15 nM.

**Q.** Which IC50 [3] does the source give for N#Cc1cccc(C(=O)Nc2cc(F)cc(Oc3cncnc3)c2)c1 [drawing 665] here?
**A.** The IC50 was 61 ± 15 nM.

**Q.** What about the IC50 [2] of the same compound?
**A.** The IC50 was 60 nM.
